Test results from patent US7138361B2, “Herbicidal heterocycles” (E. I. du Pont de Nemours and Company, priority 2000, dated 2006).

Assays:
Assay type in all cases: in vivo
[1] = test system: lambsquarters (Chenopodium album); assay: Test B preemergence
How it was run: (§1)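 Seeds were planted and sprayed preemergence with test chemical in a non-phytotoxic solvent mixture containing surfactant; postemergence plants (2 to 18 cm, 1- to 4-leaf stage) received the same formulation. Greenhouse hold 13 to 15 days, then visual rating versus untreated controls on a 0–100 scale (0 no effect, 100 complete control).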

[2] = test system: Surinam grass (Brachiaria decumbens); assay: Test B preemergence
How it was run: as §1

corn (Zea mays) [3] = assay: Test B preemergence
How it was run: as §1

[4] = test system: cocklebur (Xanthium strumarium); assay: Test B preemergence
How it was run: as §1

[5] = test system: pigweed (Amaranthus retroflexus); assay: Test B preemergence
How it was run: as §1

[6] = test system: barnyardgrass (Echinochloa crus-galli); assay: Test B preemergence
How it was run: as §1

[7] = test system: giant foxtail (Setaria faberii); assay: Test B preemergence
How it was run: as §1

[8] = test system: crabgrass (Digitaria sanguinalis); assay: Test B preemergence
How it was run: as §1

rice (Oryza saliva) [9] = assay: Test B preemergence
How it was run: as §1

[10] = test system: morning glory (Ipomoea hederacea); assay: Test B preemergence
How it was run: as §1

[11] = test system: velvetleaf (Abutilon theophrasti); assay: Test B preemergence
How it was run: as §1

[12] = test system: smallflower flatsedge (Cyperus difformis); assay: Test C flooded paddy test; settings: for Flatsedge plant response rating: Flooded Paddy, scale 0 to 100, 0 no effect, 100 complete control; for Plant response rating, Flatsedge: flooded paddy test, scale 0 to 100 (0 no effect, 100 complete control)
How it was run: (§2)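 Ratings come from visual comparison with control plants after 12 to 14 days in the greenhouse. Each species was at the 2-leaf stage when the flooded paddy was treated. Scores run from 0, meaning no effect, to 100, meaning complete control.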

[13] = test system: barnyardgrass (Echinochloa crus-galli); assay: Test C flooded paddy test; settings: for Barnyardgrass plant response rating: Flooded Paddy, scale 0 to 100, 0 no effect, 100 complete control; for Plant response rating, Barnyardgrass: flooded paddy test, scale 0 to 100 (0 no effect, 100 complete control)
How it was run: as §2

[14] = test system: duck salad (Heteranthera limosa); assay: Test C flooded paddy test; settings: for Ducksalad plant response rating: Flooded Paddy, scale 0 to 100, 0 no effect, 100 complete control; for Plant response rating, Ducksalad: flooded paddy test, scale 0 to 100 (0 no effect, 100 complete control)
How it was run: as §2

rice (Oryza saliva) [15] = assay: Test C flooded paddy test; settings: for Rice plant response rating: Flooded Paddy, scale 0 to 100, 0 no effect, 100 complete control; for Plant response rating, Rice: flooded paddy test, scale 0 to 100 (0 no effect, 100 complete control)
How it was run: as §2

Nightshade = assay: Test C preemergence; settings: Rate 500 g/ha, visual evaluation after 12 to 14 days
Sunflower = assay: Test C preemergence; settings: Rate 250 g/ha, scale 0 to 100, 0 no effect, 100 complete control
[16] = test system: Surinam grass (Brachiaria decumbens); assay: Test B postemergence; settings: 13 to 15 days
How it was run: as §1

corn (Zea mays) [17] = assay: Test B postemergence; settings: 13 to 15 days
How it was run: as §1

[18] = test system: pigweed (Amaranthus retroflexus); assay: Test B postemergence; settings: 13 to 15 days
How it was run: as §1

[19] = test system: barnyardgrass (Echinochloa crus-galli); assay: Test B postemergence; settings: 13 to 15 days
How it was run: as §1

[20] = test system: giant foxtail (Setaria faberii); assay: Test B postemergence; settings: 13 to 15 days
How it was run: as §1

[21] = test system: blackgrass (Alopecurus myosuroides); assay: Test B postemergence; settings: 13 to 15 days
How it was run: as §1

[22] = test system: morning glory (Ipomoea hederacea); assay: Test B postemergence; settings: 13 to 15 days
How it was run: as §1

[23] = test system: velvetleaf (Abutilon theophrasti); assay: Test B postemergence; settings: 13 to 15 days
How it was run: as §1

[24] = test system: wheat (Triticum aestivum); assay: Test B postemergence; settings: 13 to 15 days
How it was run: as §1

[25] = Preemergence, Rate 500 g/ha, scale 0 to 100, 0 no effect, 100 complete control
[26] = preemergence, Rate 125 g/ha, scale of 0 to 100 where 0 is no effect and 100 is complete control, 13 to 15 days
[27] = Rate 125 g/ha, scale 0 (no effect) to 100 (complete control)
[28] = Rate 500 g/ha, scale 0 to 100, 0 is no effect, 100 is complete control

## CC(C)(C)c1ccn(C2CCN(c3cccc(OC(F)F)c3)C2=O)n1 (stereo not shown) [Compound 76]
[1]; [25]
  Plant response rating, Lambsquarters: 100
[1]; [26]
  Plant response rating, Lambsquarters: 100
[2]; [25]
  Plant response rating, Surinam grass: 100
[2]; [26]
  Plant response rating, Surinam grass: 80
Corn (Zea mays) [3]; [25]
  Plant response rating, Corn: 70
Corn (Zea mays) [3]; [26]
  Plant response rating, Corn: 0
[4]; [25]
  Plant response rating, Cocklebur: 0
[4]; [26]
  Plant response rating, Cocklebur: 0
[5]; [25]
  Plant response rating, Pigweed: 100
[5]; [26]
  Plant response rating, Pigweed: 100
[6]; [25]
  Plant response rating, Barnyardgrass: 100
[6]; [26]
  Plant response rating, Barnyardgrass: 100
[7]; [25]
  Plant response rating, Foxtail, Giant: 100
[7]; [26]
  Plant response rating, Foxtail, Giant: 100
[8]; [25]
  Plant response rating, Crabgrass: 100
[8]; [26]
  Plant response rating, Crabgrass: 100
Rice (Oryza saliva) [9]; [25]
  Plant response rating, Rice: 90
Rice (Oryza saliva) [9]; [26]
  Plant response rating, Rice: 70
[10]; [25]
  Plant response rating, Morningglory: 100
[10]; [26]
  Plant response rating, Morningglory: 0
[11]; [25]
  Plant response rating, Velvetleaf: 0
[11]; [26]
  Plant response rating, Velvetleaf: 0
[12]; Rate 250 g/ha
  Flatsedge plant response rating: 90
[12]; Rate 500 g/ha
  Flatsedge plant response rating: 90
[12]; Rate 62 g/ha
  Plant response rating, Flatsedge: 90
[12]; Rate 125 g/ha
  Plant response rating, Flatsedge: 90
[13]; Rate 250 g/ha
  Barnyardgrass plant response rating: 90
[13]; Rate 500 g/ha
  Barnyardgrass plant response rating: 90
[13]; Rate 62 g/ha
  Plant response rating, Barnyardgrass: 40
[13]; Rate 125 g/ha
  Plant response rating, Barnyardgrass: 90
[14]; Rate 250 g/ha
  Ducksalad plant response rating: 80
[14]; Rate 500 g/ha
  Ducksalad plant response rating: 100
[14]; Rate 62 g/ha
  Plant response rating, Ducksalad: 30
[14]; Rate 125 g/ha
  Plant response rating, Ducksalad: 80
Rice (Oryza saliva) [15]; Rate 250 g/ha
  Rice plant response rating: 80
Rice (Oryza saliva) [15]; Rate 500 g/ha
  Rice plant response rating: 80
Rice (Oryza saliva) [15]; Rate 62 g/ha
  Plant response rating, Rice: 20
Rice (Oryza saliva) [15]; Rate 125 g/ha
  Plant response rating, Rice: 40
Nightshade
  Plant response rating (0 to 100), Nightshade: 60
Sunflower
  Plant response rating, Sunflower: 30
[16]; [27]
  Plant response rating, Surinam grass: 0
[16]; [28]
  Plant response rating, Surinam grass: 10
Corn (Zea mays) [17]; [27]
  Plant response rating, Corn: 0
Corn (Zea mays) [17]; [28]
  Plant response rating, Corn: 0
[18]; [27]
  Plant response rating, Pigweed: 30
[18]; [28]
  Plant response rating, Pigweed: 80
[19]; [27]
  Plant response rating, Barnyardgrass: 0
[19]; [28]
  Plant response rating, Barnyardgrass: 90
[20]; [27]
  Plant response rating, Foxtail, Giant: 0
[20]; [28]
  Plant response rating, Foxtail, Giant: 30
[21]; [27]
  Plant response rating, Blackgrass: 0
[21]; [28]
  Plant response rating, Blackgrass: 0
[22]; [27]
  Plant response rating, Morningglory: 0
[22]; [28]
  Plant response rating, Morningglory: 20
[23]; [27]
  Plant response rating, Velvetleaf: 0
[23]; [28]
  Plant response rating, Velvetleaf: 0
[24]; [27]
  Plant response rating, Wheat: 0
[24]; [28]
  Plant response rating, Wheat: 0
